System: Probe DNA / complementary DNA (porcine) hybrid (DNA, duplex) CTGATAGTAGATTTGTGATGACCGTAGCCC/CTACGGTCATCACAAATCTACTATCAG
Experiment: differential pulse voltammetry, redox indicator on DNA electrode
Details: 30 μM 2b mixed with complementary DNA 1 × 10^-8 M; buffer wash; peak 1.45 μA; qualitative

binding: yes
SMILES: CC1=NCCNC(C)(C)CC(C)=NCCNC(C)(C)C1.[Cu+2]
